The supplement of paper PMC7695840
Where “and” joins values, the source holds several entries; their conditions need not be identical. Equal values may be shown once. Where a name gives a salt, the structure may show the parent alone.

What was measured:
[1] = tested on: Staphylococcus aureus MW2 (mecA+); assay: IC50 (growth, competition assay); settings: cefoxitin: subinhibitory
In short: (§1)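 Two fluorescent S. aureus MW2 strains, one carrying and one lacking the resistance gene, were pre-induced, mixed 1:1 and grown unshaken in LB in 1536-well plates for 20 h at 37 °C and 90% humidity with a subinhibitory drug dose set each day. Compounds were tested on five- or nine-point 2-fold gradients in two dye-swapped replicates. DsRed (540/590) and GFP (485/520) signals were scaled per plate between the medians of single-strain controls, and No Treatment was then set to 0.5. For each strain, IC50 was taken as the dose that halved the No Treatment signal, or else the maximal signal.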

[2] = tested on: Staphylococcus aureus MW2 delta-mecA (mecA-); assay: IC50 (growth, competition assay); settings: cefoxitin: subinhibitory
In short: as §1

| Compound | IC50 ([1]; fluorescent label: DsRed) | IC50 ([1]; fluorescent label: GFP) | IC50 ([2]; fluorescent label: DsRed) | IC50 ([2]; fluorescent label: GFP) |
| --- | --- | --- | --- | --- |
| O=C(Nc1cccc(C(F)(F)F)c1)Nc1cc(S(=O)(=O)NC2CC2)ccc1-c1ccsc1 [AGI-6780] | 33.7 µM | 36.9 µM | 18.5 µM | 11.6 µM |
| CO[C@@H]1[C@@H](OC(N)=O)[C@@H](O)[C@H](Oc2ccc3c(O)c(NC(=O)c4ccc(O)c(CC=C(C)C)c4)c(=O)oc3c2C)OC1(C)C [ALBAMYCIN] | < 9.85 µM | < 9.85 µM | < 9.85 µM | < 9.85 µM |
| CCCCC(CC)CN=C(N)N=C(N)NCCCCCCNC(N)=NC(N)=NCC(CC)CCCC (stereo not given) [ALEXIDINE HYDROCHLORIDE] | < 9.85 µM | < 9.85 µM | < 9.85 µM | < 9.85 µM |
| C[C@@H](NCCCc1cccc(C(F)(F)F)c1)c1cccc2ccccc12 [AMG-073 HCl (Cinacalcet hydrochloride)] | 48.8 µM | 54.9 µM | 13.4 µM | < 9.85 µM |
| NCCOB(c1ccccc1)c1ccccc1 [AMINOETHOXYDIPHENYLBORANE] | 25.6 µM | 25.1 µM | 11.1 µM | 11.7 µM |
| CC1(C)S[C@@H]2[C@H](NC(=O)[C@H](N)c3ccc(O)cc3)C(=O)N2[C@H]1C(=O)O [AMOXIL] | 135 µM | 106 µM | < 9.85 µM | < 9.85 µM |
| COc1cc(NS(C)(=O)=O)ccc1Nc1c2ccccc2nc2ccccc12 [AMSIDYL] | 74.3 µM | 76.1 µM | < 9.85 µM | < 9.85 µM |
| Cc1nnc(SCC2=C(C(=O)O)N3C(=O)[C@@H](NC(=O)Cn4cnnn4)[C@H]3SC2)s1 [ANCEF] | 17.8 µM | 14.9 µM | < 9.85 µM | < 9.85 µM |
| COc1ccc([C@@H](C)C(=O)c2ccc(O)cc2O)cc1 [ANGOLENSIN (R)] | 22.3 µM | 27.7 µM | < 9.85 µM | < 9.85 µM |
| CCN(CC)C(=S)SSC(=S)N(CC)CC [ANTABUSE] | 31.7 µM | 33.4 µM | 12.3 µM | 11.1 µM |
| O=C(O)c1ccccc1Nc1cccc(C(F)(F)F)c1 [ARLEF] | 17.2 µM | 19 µM | < 9.85 µM | 24.8 µM |
| O=C1NC(=O)[C@@H](c2cn3c4c(cccc24)CCC3)[C@@H]1c1c[nH]c2ccccc12 [ARQ 197 (Tivantinib)] | 107 µM | 112 µM | 32.2 µM | 57.3 µM |
| C#CC[C@H](c1nc2cc(Cl)ccc2c(=O)n1Nc1ccccc1)N(CCCN)C(=O)c1cccc(Cl)c1F [ARQ 621] | 89.2 µM | 105 µM | 23.9 µM | 11.2 µM |
| CCCCCC(=O)Cc1cc(O)cc(O)c1C(=O)Oc1cc(CC(=O)CCCCC)c(C(=O)O)c(OC)c1 [ARTHONIOIC ACID] | 24 µM | 56 µM | 45.5 µM | 49.7 µM |
| C[C@H]1[C@H](C)CC[C@]2(C(=O)O)CC[C@]3(C)C(=CC[C@@H]4[C@@]5(C)C[C@@H](O)[C@H](O)[C@@](C)(CO)[C@@H]5CC[C@]43C)[C@H]12 [ASIATIC ACID] | 109 µM | > 150 µM | 123 µM | 115 µM |
| CCOc1nc2cccc(C(=O)OC(C)OC(=O)OC3CCCCC3)c2n1Cc1ccc(-c2ccccc2-c2nn[nH]n2)cc1 (stereo not given) [ATACAND] | 9.89 µM | 14.8 µM | < 9.85 µM | < 9.85 µM |
| CN(C)[C@@H]1C(O)=C(C(N)=O)C(=O)[C@@]2(O)C(O)=C3C(=O)c4c(O)ccc(Cl)c4[C@@](C)(O)[C@H]3C[C@@H]12 [AUREOMYCIN] | < 9.85 µM | < 9.85 µM | < 9.85 µM | < 9.85 µM |
| COc1c(N2C[C@@H]3CCCN[C@@H]3C2)c(F)cc2c(=O)c(C(=O)O)cn(C3CC3)c12 [AVELOX] | < 9.85 µM | < 9.85 µM | < 9.85 µM | < 9.85 µM |
| C=CCCCCCCCCCCCc1ccco1 [AVOCADENOFURAN] | 48.4 µM | 80.9 µM | 16.1 µM | < 9.85 µM |
| Cc1cc(Nc2nc(N[C@@H](C)c3ccc(F)cc3)c(C#N)cc2F)n[nH]1 [AZ 960] | 110 µM | 112 µM | 2.4 µM | 1.67 µM |

| Compound | IC50 ([1]; fluorescent label: DsRed) | IC50 ([1]; fluorescent label: GFP) | IC50 ([2]; fluorescent label: DsRed) | IC50 ([2]; fluorescent label: GFP) |
| --- | --- | --- | --- | --- |
| N[C@@H]1CCCN(c2c(/C=C3\SC(=O)NC3=O)cccc2-c2ccccc2)C1 [AZD1208] | 111 µM | 101 µM | 26.7 µM | 22.8 µM |
| Cc1ncc(-c2ccnc(Nc3ccc(S(C)(=O)=O)cc3)n2)n1C(C)C [AZD5438] | > 150 µM | > 150 µM | 10.3 µM | < 9.85 µM |
| CC1(C)S[C@@H]2[C@H](NC(=O)[C@H](NC(=O)N3CCNC3=O)c3ccccc3)C(=O)N2[C@H]1C(=O)O [AZLIN] | 32.2 µM | 47.2 µM | < 9.85 µM | < 9.85 µM |
| CN(Cc1cnc2nc(N)nc(N)c2n1)c1ccc(C(=O)N[C@@H](CCC(=O)O)C(=O)O)cc1 [Abitrexate (Methotrexate)] | 115 µM | 103 µM | 36.3 µM | 31.5 µM |
| CCCCC[C@H](CC(=O)NO)C(=O)N[C@H](C(=O)N1CCC[C@H]1CO)C(C)C [Actinonin] | 15.6 µM | 11 µM | < 9.85 µM | < 9.85 µM |
| O=c1[nH]cc(F)c(=O)[nH]1 [Adrucil (Fluorouracil)] | 1.76 µM | 1.78 µM | < 0.498 µM | < 0.498 µM |
| C=C1/C(=C\C=C2/CCC[C@]3(C)[C@@H]([C@H](C)CCCC(C)C)CC[C@@H]23)C[C@@H](O)C[C@@H]1O [Alfacalcidol] | > 150 µM | > 150 µM | > 150 µM | > 150 µM |
| CC1(C)S[C@@H]2[C@H](NC(=O)[C@H](N)c3ccc(O)cc3)C(=O)N2[C@H]1C(=O)O [Amoxicillin sodium (Amox)] | < 9.85 µM | 15.1 µM | < 9.85 µM | < 9.85 µM |
| CC1(C)S[C@@H]2[C@H](NC(=O)[C@H](N)c3ccccc3)C(=O)N2[C@H]1C(=O)O [Ampicillin sodium] | < 9.85 µM | 15.1 µM | < 9.85 µM | < 9.85 µM |
| COc1cc(NS(C)(=O)=O)ccc1Nc1c2ccccc2nc2ccccc12 [Amsacrine hydrochloride] | 106 µM | 97.2 µM | < 9.85 µM | < 9.85 µM |
| N#C[C@H](O[C@@H]1O[C@H](CO[C@@H]2O[C@H](CO)[C@@H](O)[C@H](O)[C@H]2O)[C@@H](O)[C@H](O)[C@H]1O)c1ccccc1 [Amygdalin] | 23.8 µM | 28.9 µM | < 9.85 µM | < 9.85 µM |
| C[C@@H](O[C@H]1OCCN(Cc2n[nH]c(=O)[nH]2)[C@H]1c1ccc(F)cc1)c1cc(C(F)(F)F)cc(C(F)(F)F)c1 [Aprepitant (MK-0869)] | 45 µM | 54.3 µM | 18.9 µM | 17.8 µM |
| C[C@H]1[C@H](C)CC[C@]2(C(=O)O)CC[C@]3(C)C(=CC[C@@H]4[C@@]5(C)C[C@@H](O)[C@H](O)[C@@](C)(CO)[C@@H]5CC[C@]43C)[C@H]12 [Asiatic acid] | 54.9 µM and 27.7 µM | 29.7 µM and 27.7 µM | 17 µM and 28 µM | 17.5 µM and 23.5 µM |
| CC(C)c1c(C(=O)Nc2ccccc2)c(-c2ccccc2)c(-c2ccc(F)cc2)n1CC[C@@H](O)C[C@@H](O)CC(=O)O [Atorvastatin calcium (Lipitor)] | 91 µM and 75.8 µM | 73.2 µM and 62.8 µM | 29 µM and 24.3 µM | 30.1 µM and 25.4 µM |
| CC(=O)OC[C@H]1O[C@@H]([S-])[C@H](OC(C)=O)[C@@H](OC(C)=O)[C@@H]1OC(C)=O.CCP(CC)CC.[Au+] [Auranofin] | < 9.85 µM | < 9.85 µM | < 9.85 µM | < 9.85 µM |
| CCOc1nc2cccc(C(=O)OCc3oc(=O)oc3C)c2n1Cc1ccc(-c2ccccc2-c2noc(=O)[nH]2)cc1 [Azilsartan Medoxomil (TAK-491)] | 48.4 µM | 67 µM | 11.9 µM | 10.2 µM |
| CC[C@H]1OC(=O)[C@H](C)[C@@H](O[C@H]2C[C@@](C)(OC)[C@@H](O)[C@H](C)O2)[C@H](C)[C@@H](O[C@@H]2O[C@H](C)C[C@H](N(C)C)[C@H]2O)[C@](C)(O)C[C@@H](C)CN(C)[C@H](C)[C@@H](O)[C@]1(C)O [Azithromycin (Zithromax)] | 22.8 µM | 15.7 µM | 0.827 µM | 1.29 µM |
| CC1(C)S[C@@H]2[C@H](NC(=O)[C@H](NC(=O)N3CCNC3=O)c3ccccc3)C(=O)N2[C@H]1C(=O)O [Azlocillin sodium salt] | < 9.85 µM | 27.7 µM | < 9.85 µM | < 9.85 µM |
| CC[C@H](C)[C@H](N)C1=N[C@H](C(=O)N[C@@H](CC(C)C)C(=O)N[C@H](CCC(=O)O)C(=O)N[C@H](C(=O)N[C@H]2CCCCNC(=O)[C@H](CC(N)=O)NC(=O)[C@@H](CC(=O)O)NC(=O)[C@H](Cc3cnc[nH]3)NC(=O)[C@@H](Cc3ccccc3)NC(=O)[C@H]([C@@H](C)CC)NC(=O)[C@@H](CCCN)NC2=O)[C@@H](C)CC)CS1 [BACITRACIN] | > 150 µM | > 150 µM | 37.8 µM | 59.4 µM |
| Cc1onc(-c2ccccc2)c1C(=O)N[C@@H]1C(=O)N2[C@@H]1SC(C)(C)[C@@H]2C(=O)O [BACTOCILL] | < 9.85 µM | < 9.85 µM | < 9.85 µM | < 9.85 µM |
